We go through 8 compounds from patent publication US4435404A, “Carbostyril derivatives” (priority 1980, dated 1984).

Assay [1] concerns arterial papillary muscle. Put plainly: Positive inotropic effect, blood-perfused arterial papillary muscle. The conditions noted are these: into septal artery. The arrangement: species or system dog. The procedure:
Positive inotropic effects of the novel carbostyril derivatives of the present invention were tested according to a method described by M. Endoh and K. Hashimoto, in "American Journal of Physiology", Vol. 218, No. 5, May, 1970, pages 1459-1463 as follows:
Adult bastard dogs of both sexes, weighing 8-12 kg, were anesthetized with pentobarbital-Na at a rate of 30 mg/kg by intraveneous administration. After another intraveneous administration of sodium heparin, 1,000 μ/kg, the test dog was sacrificed by blood letting. The heart of the dog was excised and immediately plunged into Locke's solution, then the arterial papillary muscle was excised out with interventicular septum. The septal artery was carefully isolated and cannulated with a polyethylene cannula and was ligated with thread. Septal arteries those of connected to other than the arterial papillary muscle were ligated with thread. Next, the donor adult bastard dogs, weighing 18-27 kg, were anesthetized with pentabarbital-Na (30 mg/kg, intraveneous injection), and further treated with intravenous administration of sodium heparin (1,000 μ/kg). The arterial papillary muscle was perfused through the septal artery being cannulated with the polyethylene cannula with the blood conducted from the carotid artery of the donor dog by aid of Peristaric pump. The perfusion pressure was maintained at 100 mmHg constantly. Then the muscle was electrically stimulated by an electronic stimulator through bipolar electrodes in contact with the interventicular septum. The strength of stimulation was 2 X (the minimum value for appearing the action), frequency 2 Hz, pulse duration 2 msec.
The isometric contraction generated was measured through a force-displacement transducer. The amount of blood flow in the coronary arteries was measured by determining the amount of the blood flow conducted to the septal artery by electromagnetic flow meter. All the data were recorded on an ink-writing recorder.
A solution containing a compound to be tested was injected into the septal artery through the rubber tube connected close to the shunk of the polyethylene cannula, in an amount of 10-30 μl.
The results obtained is shown in Table 4, in which the increasement (%) of contraction is indicated as the ratio of the contractions before and after the administration (injection) of the solution containing the test compound.

Assay [2] relates to bastard dog. Put plainly: Increasing effect of cerebral blood flow. The conditions noted are these: profunda femoris vein. It counts as in vivo. The procedure:
Thus, a bastard dog (male, 12-20 kg of body weight) was fixed in a prone (position) and was anesthetized with 20 mg/kg of pentobarbital sodium and made forced breathing to kept the frequency of respiration at 20 times/minutes. Then, the skull was bared and the surface bone was removed to expose the venous sinus by using grinder and the venous blood was took out from the venas which was cannulizated. The amount of venous blood flow was measured by using an electromagnetic blood flow meter and next measured by using drop-counter by measuring the number of drops of blood per 10 seconds.
The increasing effect of cerebral blood flow was calculated by comparing the number of blood drops in 30 seconds at the peak of increasement shown before and after the administration of compound to be tested. The each of compounds to be tested was dissolved in dimethylformamide and diluted with physiological saline solution and administered through a cannule being inserted into the profunda femoris vein.

For assay [3], the system named is Deoxycorticosteroneacetate (DOCA)/saline hypertension rats (DHR). Put plainly: Hypotensive effect, Tail-cuff method, DHR. The assay is classed as in vivo, rat. Conditions: 30 mg/kg oral, mean value ± standard deviation. On the procedure: (§1) Hypotensive effect of the compounds were measured by determining the maximum blood pressure of the test animals according to a procedure of Tail-cuff method.
(§2) Test animals used were the following two types.
(2) Deoxycorticosteroneacetate (DOCA)/saline hypertension rats (DHR)
Wistar strain male rats having 150-170 g of body weight, were anesthetized with ether and the left-side kidney was enucleated. One (1) week after the operation, 10 mg/kg of DOCA was injected subcutaneously once a week and 1% NaCl aqueous solution was given as drinking water. Five (5) weeks after the operation, rats having the maximum blood pressure over 150 mmHg were selected and used as test animals which were abstained from food for overnight.
(§3) Each of compounds to be tested were administered orally and the blood pressure was measured before the administration and 1, 2, 4, 6 and 8 hours after the administration. The blood pressure was measured by using Recorder (Rectihoriz type 8S, San-ei Instrument) and Electrosthygmomanometer PE-300 (Macro Bio-systems, Houston, Tex.).

Assay [4] relates to Gold blatt type renoprival hypertension rats (RHR). Put plainly: Hypotensive effect, Tail-cuff method, RHR. It counts as in vivo, rat. Conditions: 30 mg/kg oral, mean value ± standard deviation. The procedure:
as §1, §2
(1) Gold blatt type renoprival hypertension rats (RHR)
Wistar strain male rats having, 160-180 g of body weight, were anesthetized with ether and the left-side renal artery was pluged with a silver clip having 0.2 mm inside diameter, while the right-side renal artery was kept as it was without operation. Four (4) weeks after the operation, rats having the maximum blood pressure over 150 mmHg were selected and used as test animals which were abstained from food for overnight.
as §3

Take “6-{3-[N-(2-Hydroxybutyl)-N-cyclohexylaminocarbonyl]propoxy}-3,4-dihydrocarbostyril [Example 4]”: the figures for the Increasing of inotropic in assay [1] (dosage 10 n mol) and in assay [1] (dosage 100 n mol) were 10% and 62.5%, respectively. For the same compound, the “Increasing effect of cerebral blood flow” value in assay [2] (dosage 300 μg/kg) was 64.2%.

Turning to “6-{3-[N-(2-hydroxyethyl)-N-cyclohexylaminocarbonyl]propoxy}-3,4-dihydrocarbostyril [Example 2]”, the results for the Increasing of inotropic in assay [1] (dosage 10 n mol) and in assay [1] (dosage 30 n mol) were 38.9% and 94.3%, respectively. In addition, the “Maximum blood pressure after the administration (difference)” value (from here on “Maximum blood pressure … (difference)”) is -63.0 ± 9.1 mmHg in assay [3] (1 hour); -30.4 ± 9.9 mmHg in assay [3] (2 hours); -42.8 ± 5.5 mmHg in assay [3] (4 hours); -24.1 ± 6.8 mmHg in assay [3] (6 hours); -4.8 ± 6.4 mmHg in assay [4] (1 hour); -4.8 ± 3.7 mmHg in assay [4] (2 hours). Moreover, the “Maximum blood pressure … (difference)” value in assay [4] (4 hours) is -3.2 ± 4.0 mmHg.

For “6-{4-[N-(2-Hydroxybutyl)-N-cyclopentylaminocarbonyl]butoxy}-3,4-dihydrocarbostyril [Example 12]”, the “Increasing effect of cerebral blood flow” value in assay [2] (dosage 300 μg/kg) worked out at 73.5%.

In the case of “6-{4-[N-(2-Hydroxyethyl)-N-cyclohexylaminocarbonyl]butoxy}-3,4-dihydrocarbostyril [Example 9]”, the “Maximum blood pressure … (difference)” value was -51.2 ± 14.0 mmHg in assay [3] (1 hour); -44.6 ± 14.6 mmHg in assay [3] (2 hours); -42.4 ± 13.9 mmHg in assay [3] (4 hours); -34.0 ± 10.2 mmHg in assay [3] (6 hours); -10.1 ± 6.2 mmHg in assay [4] (1 hour); -11.6 ± 9.6 mmHg in assay [4] (2 hours). The “Maximum blood pressure … (difference)” value in assay [4] (4 hours) is listed as -14.2 ± 5.0 mmHg; in assay [4] (6 hours), -8.0 ± 2.6 mmHg. The “Increasing effect of cerebral blood flow” value in assay [2] (dosage 100 μg/kg) amounted to 85.3%.

As to “6-{4-[N-(2-Hydroxypropyl)-N-cyclohexylaminocarbonyl]butoxy}-3,4-dihydrocarbostyril [Example 8]”, the Increasing of inotropic is reported as 38.7% in assay [1] (dosage 30 n mol) and 89.4% in assay [1] (dosage 100 n mol).

As for “6-{5-[N-(2-Hydroxybutyl)-N-cyclohexylaminocarbonyl]pentyloxy}-3,4-dihydrocarbostyril [Example 16]”, the “Maximum blood pressure … (difference)” value is -20.2 ± 8.0 mmHg in assay [3] (1 hour), -21.2 ± 9.7 mmHg in assay [3] (2 hours), -16.2 ± 6.8 mmHg in assay [3] (4 hours) and -6.5 ± 8.5 mmHg in assay [3] (6 hours). In addition, in assay [2] (dosage 100 μg/kg), the “Increasing effect of cerebral blood flow” value is given as 63.2%.

With “7-{3-[N-(3-Hydroxypropyl)-N-cyclohexylaminocarbonyl]propoxy}-3,4-dihydrocarbostyril [Example 17]”, the “Maximum blood pressure … (difference)” value is -2.5 ± 4.0 mmHg in assay [3] (1 hour); -8.7 ± 3.3 mmHg in assay [3] (2 hours); -9.3 ± 8.6 mmHg in assay [3] (4 hours); -25.5 ± 7.0 mmHg in assay [4] (1 hour); -23.3 ± 9.6 mmHg in assay [4] (2 hours); -27.0 ± 14.1 mmHg in assay [4] (4 hours). Further, the “Maximum blood pressure … (difference)” value in assay [4] (6 hours) was -33.7 ± 10.2 mmHg; in assay [4] (8 hours) it was -29.8 ± 9.7 mmHg. For the same compound, the “Increasing effect of cerebral blood flow” value in assay [2] (dosage 100 μg/kg) was found to be 34.4%.

Turning to `COc1ccc(Cc2nccc3cc(OC)c(OC)cc23)cc1OC` [Papaverin, papaverine, reference compound], the “Increasing effect of cerebral blood flow” value in assay [2] (dosage 1,000 μg/kg) is 86.0%.
